Experimental data published in US9408387B2, “Safening 6-amino-2-(substituted phenyl)-5-substituted-4-pyrimidinecarboxylate herbicide injury on cereal crops” (Dow AgroSciences LLC, priority 2009, dated 2016).

Columns and labels:
Type in all cases: in vivo
[1] = tested on: spring wheat (Triticum aestivum L; TRZAS); test: Postemergence herbicidal safening in cereal crops, greenhouse, visual injury: spring wheat; conditions: for TRZAS Ob (Observed values, % control): CQC-M 0
Description: (§1) Evaluation of Postemergence Herbicidal Safening in Cereal Crops
(§2) Seeds of the desired test plant species were planted in Sun Gro MetroMix® 306 planting mixture, which typically has a pH of 6.0 to 6.8 and an organic matter content of about 30 percent, in plastic pots with a surface area of 103.2 square centimeters (cm^2). When required to ensure good germination and healthy plants, a fungicide treatment and/or other chemical or physical treatment was applied. The plants were grown for 7-36 days (d) in a greenhouse with an approximate 14-hour (h) photoperiod which was maintained at about 18° C. during the day and 17° C. during the night. Nutrients and water were added on a regular basis and supplemental lighting was provided with overhead metal halide 1000-Watt lamps as necessary. The plants were employed for testing when they reached the second or third true leaf stage.
(§3) Treatments consisted of the acids or esters of compounds 1-10 and cloquintocet-mexyl (CQC-M), fenchlorazole-ethyl, mefenpyr-diethyl alone and in combination. Weighed amounts of acid or methyl esters of the compounds of formula (I) were dissolved in a volume of 97:3 v/v acetone/dimethylsulfoxide (DMSO) to obtain concentrated solutions. […] The concentrated solutions of the test compound were diluted with the addition of an aqueous mixture containing acetone, water, isopropyl alcohol, DMSO, Agri-Dex crop oil concentrate, and Triton® X-77 surfactant in a 64.7:26.0:6.7:2.0:0.7:0.01 v/v ratio. Test compounds were diluted to the appropriate application rate with a dilution solution which was prepared by mixing the appropriate volume of 97:3 v/v acetone/DMSO and the appropriate volume of an aqueous mixture containing acetone, water, isopropyl alcohol, DMSO, Agri-Dex crop oil concentrate, and Triton® X-77 surfactant in a 64.7:26.0:6.7:2.0:0.7:0.01 v/v ratio. Compound requirements are based upon a 12 mL application volume at a rate of 187 liters per hectare (L/ha). The concentrated solutions of the safener were prepared following the same procedure. Weighed amounts of safener were dissolved in a volume of 97:3 v/v acetone/DMSO to obtain concentrated safener solutions.
(§4) Spray solutions of the herbicide safener and test compound mixtures were prepared by adding the concentrated solutions to the appropriate amount of dilution solution to form 12 mL spray solution with active ingredients in combinations.
(§5) Formulated compounds were applied to the plant material with an overhead Mandel track sprayer equipped with 8002E nozzles calibrated to deliver 187 L/ha over an application area of 0.503 square meters (m^2) at a spray height of 18 inches (43 centimeters (cm)) above average plant canopy. Control plants were sprayed in the same manner with the solvent blank.
(§6) The treated plants and control plants were placed in a greenhouse as described above and watered by sub-irrigation to prevent wash-off of the test compounds. After 20-22 d, the condition of the test plants as compared with that of the control plants was determined visually and scored on a scale of 0 to 100 percent where 0 corresponds to no injury and 100 corresponds to complete kill.
(§7) Colby's equation was used to determine the herbicidal effects expected from the mixtures (Colby, S. R. Calculation of the synergistic and antagonistic response of herbicide combinations. Weeds 1967, 15, 20-22.).
(§8) The following equation was used to calculate the expected activity of mixtures containing two active ingredients, A and B: Expected=A+B−(A×B/100)
(§9) A=observed efficacy of active ingredient A at the same concentration as used in the mixture.
(§10) B=observed efficacy of active ingredient B at the same concentration as used in the mixture.

CIRAR = test: Postemergence herbicidal activity, greenhouse, visual injury: CIRAR; conditions: CQC-M 0
Description: as §1, §2, §3, §4, §5, §6, §7, §8, §9, §10

[2] = tested on: kochia (Kochia scoparia L; KCHSC); test: Postemergence herbicidal activity, greenhouse, visual injury: kochia; conditions: CQC-M 0
Description: as §1, §2, §3, §4, §5, §6, §7, §8, §9, §10

[3] = tested on: wild mustard (Sinapis arvensis L.; SINAR); test: Postemergence herbicidal activity, greenhouse, visual injury: SINAR; conditions: CQC-M 0
[4] = tested on: purple deadnettle (Lamium purpureum L; LAMPU); test: Postemergence herbicidal activity, greenhouse, visual injury: purple deadnettle; conditions: for LAMPU Ob (Observed values, % control): CQC-M 0
Description: as §1, §2, §3, §4, §5, §6, §7, §8, §9, §10

[5] = tested on: bird's-eye speedwell (Veronica persica L; VERPE); test: Postemergence herbicidal activity, greenhouse, visual injury: bird's-eye speedwell; conditions: CQC-M 0
Description: as §1, §2, §3, §4, §5, §6, §7, §8, §9, §10

[6] = tested on: spring barley (Hordeum vulgare L; HORVS); test: Postemergence herbicidal safening in cereal crops, greenhouse, visual injury: spring barley; conditions: for HORVS Ob (Observed values, % control): CQC-M 0
Description: as §1, §2, §3, §4, §5, §6, §7, §8, §9, §10

[7] = tested on: corn poppy (Papaver rhoeas L; PAPRH); test: Postemergence herbicidal activity, greenhouse, visual injury: corn poppy; conditions: CQC-M 0
Description: as §1, §2, §3, §4, §5, §6, §7, §8, §9, §10

MATCH = test: Postemergence herbicidal activity, greenhouse, visual injury: MATCH; conditions: CQC-M 0
Description: as §1, §2, §3, §4, §5, §6, §7, §8, §9, §10

SASKR = test: Postemergence herbicidal activity, greenhouse, visual injury: SASKR; conditions: CQC-M 0
Description: as §1, §2, §3, §4, §5, §6, §7, §8, §9, §10

[8] = tested on: wild pansy (Viola tricolor; VIOTR); test: Postemergence herbicidal activity, greenhouse, visual injury: VIOTR; conditions: CQC-M 0
[9] = tested on: lamb's-quarters (Chenopodium album L; CHEAL); test: Postemergence herbicidal activity, greenhouse, visual injury: lamb's-quarters; conditions: safener alone 140 g ae/ha; 20-22 d
Description: as §1, §2, §3
Spray solutions of the herbicide safener and test compound mixtures were prepared by adding the concentrated solutions to the appropriate amount of dilution solution to form 12 mL spray solution with active ingredients in combinations. […]
as §6, with “kill. […]” for “kill.”

## COc1c(N)nc(-c2ccc(Cl)c(F)c2F)nc1C(=O)O [Compound 10, 6-amino-2-(4-chloro-2,3-difluorophenyl)-5-methoxypyrimidine-4-carboxylic acid]
[1]; Compound 10 8.75 g ae/ha
  TRZAS Ob (Observed values, % control): 45%
[1]; Compound 10 17.5 g ae/ha
  TRZAS Ob (Observed values, % control): 55%
[1]; Compound 10 35 g ae/ha
  TRZAS Ob (Observed values, % control): 65%
[1]; Compound 10 70 g ae/ha
  TRZAS Ob (Observed values, % control): 70%
[1]; Compound 10 140 g ae/ha
  TRZAS Ob (Observed values, % control): 75%
CIRAR; Compound 10 8.75 g ae/ha
  CIRAR Ob (Observed values, % control): 80%
CIRAR; Compound 10 17.5 g ae/ha
  CIRAR Ob (Observed values, % control): 85%
CIRAR; Compound 10 35 g ae/ha
  CIRAR Ob (Observed values, % control): 90%
CIRAR; Compound 10 70 g ae/ha
  CIRAR Ob (Observed values, % control): 90%
CIRAR; Compound 10 140 g ae/ha
  CIRAR Ob (Observed values, % control): 100%
[2]; Compound 10 8.75 g ae/ha
  KCHSC Ob (Observed values, % control): 98%
[2]; Compound 10 17.5 g ae/ha
  KCHSC Ob (Observed values, % control): 98%
[2]; Compound 10 35 g ae/ha
  KCHSC Ob (Observed values, % control): 100%
[2]; Compound 10 70 g ae/ha
  KCHSC Ob (Observed values, % control): 100%
[2]; Compound 10 140 g ae/ha
  KCHSC Ob (Observed values, % control): 100%
[3]; Compound 10 8.75 g ae/ha
  SINAR Ob (Observed values, % control): 100%
[3]; Compound 10 17.5 g ae/ha
  SINAR Ob (Observed values, % control): 100%
[3]; Compound 10 35 g ae/ha
  SINAR Ob (Observed values, % control): 100%
[3]; Compound 10 70 g ae/ha
  SINAR Ob (Observed values, % control): 100%
[3]; Compound 10 140 g ae/ha
  SINAR Ob (Observed values, % control): 100%
[4]; Compound 10 8.75 g ae/ha
  LAMPU Ob (Observed values, % control): 95%
[4]; Compound 10 17.5 g ae/ha
  LAMPU Ob (Observed values, % control): 95%
[4]; Compound 10 35 g ae/ha
  LAMPU Ob (Observed values, % control): 100%
[4]; Compound 10 70 g ae/ha
  LAMPU Ob (Observed values, % control): 100%
[4]; Compound 10 140 g ae/ha
  LAMPU Ob (Observed values, % control): 100%
[5]; Compound 10 8.75 g ae/ha
  VERPE Ob (Observed values, % control): 93%
[5]; Compound 10 17.5 g ae/ha
  VERPE Ob (Observed values, % control): 97%
[5]; Compound 10 35 g ae/ha
  VERPE Ob (Observed values, % control): 100%
[5]; Compound 10 70 g ae/ha
  VERPE Ob (Observed values, % control): 100%
[5]; Compound 10 140 g ae/ha
  VERPE Ob (Observed values, % control): 100%
[6]; Compound 10 8.75 g ae/ha
  HORVS Ob (Observed values, % control): 25%
[6]; Compound 10 17.5 g ae/ha
  HORVS Ob (Observed values, % control): 30%
[6]; Compound 10 35 g ae/ha
  HORVS Ob (Observed values, % control): 60%
[6]; Compound 10 70 g ae/ha
  HORVS Ob (Observed values, % control): 75%
[6]; Compound 10 140 g ae/ha
  HORVS Ob (Observed values, % control): 85%
[7]; Compound 10 8.75 g ae/ha
  PAPRH Ob (Observed values, % control): 100%
[7]; Compound 10 17.5 g ae/ha
  PAPRH Ob (Observed values, % control): 100%
[7]; Compound 10 35 g ae/ha
  PAPRH Ob (Observed values, % control): 100%
[7]; Compound 10 70 g ae/ha
  PAPRH Ob (Observed values, % control): 100%
[7]; Compound 10 140 g ae/ha
  PAPRH Ob (Observed values, % control): 100%
MATCH; Compound 10 8.75 g ae/ha
  MATCH Ob (Observed values, % control): 70%
MATCH; Compound 10 17.5 g ae/ha
  MATCH Ob (Observed values, % control): 90%
MATCH; Compound 10 35 g ae/ha
  MATCH Ob (Observed values, % control): 93%
MATCH; Compound 10 70 g ae/ha
  MATCH Ob (Observed values, % control): 95%
MATCH; Compound 10 140 g ae/ha
  MATCH Ob (Observed values, % control): 100%
SASKR; Compound 10 8.75 g ae/ha
  SASKR Ob (Observed values, % control): 85%
SASKR; Compound 10 17.5 g ae/ha
  SASKR Ob (Observed values, % control): 87%
SASKR; Compound 10 35 g ae/ha
  SASKR Ob (Observed values, % control): 90%
SASKR; Compound 10 70 g ae/ha
  SASKR Ob (Observed values, % control): 93%
SASKR; Compound 10 140 g ae/ha
  SASKR Ob (Observed values, % control): 95%
[8]; Compound 10 8.75 g ae/ha
  VIOTR Ob (Observed values, % control): 70%
[8]; Compound 10 17.5 g ae/ha
  VIOTR Ob (Observed values, % control): 75%
[8]; Compound 10 35 g ae/ha
  VIOTR Ob (Observed values, % control): 85%
[8]; Compound 10 70 g ae/ha
  VIOTR Ob (Observed values, % control): 93%
[8]; Compound 10 140 g ae/ha
  VIOTR Ob (Observed values, % control): 97%

## CCOC(=O)c1nc(C(Cl)(Cl)Cl)n(-c2ccc(Cl)cc2Cl)n1 [Fenchlorazole-ethyl, fenchlorazole-ethyl, reference compound]
[1]; Triticum aestivum, post-emergence, 480 h, safener alone 140 g ae/ha, 20-22 d, read-out: TRZAS Ob (visual injury)
  pest or weed control at 140 g/ha: 0%
[9]
  CHEAL Ob (visual injury): 0%
[4]; Lamium purpureum, post-emergence, 480 h, safener alone 140 g ae/ha, 20-22 d, read-out: LAMPU Ob (visual injury)
  pest or weed control at 140 g/ha: 0%
[6]; Hordeum vulgare, post-emergence, 480 h, safener alone 140 g ae/ha, 20-22 d, read-out: HORVS Ob (visual injury)
  pest or weed control at 140 g/ha: 0%
